This is an account of results in patent US8383125B2, “Antimicrobial protein” (Agriculture Victoria Services Pty, Limited, priority 2006, dated 2013).

≈ marks a conversion by molar mass, not a printed value. Read-outs that look alike come from different tables or passages of the source. Where a SMILES comes first, the peptide text is derived from it. Where no end group is shown, it is not given here. [ ]: non-standard residue; d: D form.

One series concerns E. coli DH5α. Conditions: for antimicrobial activity, cleared area in radial diffusion assay (FIG. 4): 5 μl of 250 μg/ml solutions.
The test system of series [1] is Acinetobacter baumannii (ATCC 19606). The series is classed as cell-based. The protocol:
(§1) The MIC values of SEQ ID NO: 2 and SEQ ID NO: 19 were also determined against a range of multidrug-resistant isolates, including clinical and laboratory strains. Peptides, maintained at −20° C. in solid form for storage purposes, were subsequently dissolved in 0.01% (v/v) acetic acid (Sigma-Aldrich) to a stock concentration of […]. The stock solutions were made fresh for each experiment. Eighteen (18) bacterial isolates obtained from the Facility for Anti-Infective Drug Development and Innovation, Victoria, Australia (FADDI) as listed in Table 2 were maintained as stock cultures in Tryptic Soya Broth plus 20% (v/v) glycerol at a temperature of −80° C., and subcultured onto Nutrient Agar for each experiment. MIC values were determined in cation-adjusted Mueller-Hinton broth (CAMHB) and Mueller-Hinton broth (MHB) using standard broth micro-dilution methods.

The next series relates to Escherichia coli DH5 α. Format: cell-based. The method, then:
as §1

Series [2] has as its system Klebsiella pneumoniae (ATCC 13883). Format: cell-based. The method, then: as §1
Series [3] relates to Pseudomonas aeruginosa (ATCC 27853). Format: cell-based. The protocol:
as §1

Series [4] relates to P. aeruginosa (ATCC 28753). The series is classed as cell-based, Pseudomonas aeruginosa.
Series [5] relates to Salmonella choleraesuis (ATCC 14028). Format: cell-based.
In the next series the test system is Bacillus subtilis. Format: cell-based.
The subject of series [6] is Staphylococcus aureus (ATCC 25923). The series is classed as cell-based.
Series [7] concerns Streptococcus pyogenes (ATCC 19615). The series is classed as cell-based.
Series [8] deals with Streptococcus equi equi (ATCC 9527). The series is classed as cell-based. The settings on record: ATCC 9527.
The test system of series [9] is Streptococcus agalactiae (ATCC 12927). Format: cell-based.
Series [10] relates to Candida albicans (ATCC 753). Format: cell-based.
Series [11] deals with P. aeruginosa strain FADDI 002. The series is classed as cell-based, Pseudomonas aeruginosa. Conditions: strain FADDI 002, 17 h. The method, then:
as §1

Series [12] concerns A. baumannii strain FADDI 005 (ATCC 19606 derivative). Format: cell-based, Acinetobacter baumannii. Conditions: 17 hr at 35° C. The method, then:
as §1
Pseudomonas aeruginosa (ATCC 27853) and S. aureus (ATCC 43300) were included as quality controls in experiments. P. aeruginosa strains FADDI 001 and FADDI 002 are mucoid; and P. aeruginosa strains FADDI 003 and FADDI 004 are non-mucoid. P. aeruginosa strain FADDI 003 also has a small colony morphology. The A. baumannii strain FADDI 005 is a colistin-resistant isolate obtained from Mueller-Hinton agar containing 10 mg/L colistin.

Series [13] relates to A. baumannii strain FADDI 006. Format: cell-based, Acinetobacter baumannii. Conditions: strain FADDI 006, 17 h. The method, then:
as §1

For series [14], the system named is A. baumannii strain FADDI 007. The series is classed as cell-based, Acinetobacter baumannii. Conditions: strain FADDI 007, 17 h. The protocol: as §1
Series [15] relates to K. pneumoniae strain FADDI 009. Format: cell-based, Klebsiella pneumoniae. Conditions: strain FADDI 009, 17 h. The protocol:
as §1

In series [16] the test system is K. pneumoniae strain FADDI 010. The series is classed as cell-based, Klebsiella pneumoniae. Conditions: strain FADDI 010, 17 h. The method, then: as §1
In series [17] the test system is Enterococcus faecium (ATCC 700221). The series is classed as cell-based. The settings on record: ATCC 700221, 17 h. The method, then: as §1
The subject of series [18] is Staphylococcus aureus (ATCC 700698). The series is classed as cell-based. The settings on record: ATCC 700698, 17 h. The protocol:
as §1

The subject of a further series is S. aureus (ATCC 43300). The series is classed as cell-based, Staphylococcus aureus. Conditions: ATCC 43300, 17 h. The method, then:
as §1

The test system of another series is S. aureus 700699. Format: cell-based, Staphylococcus aureus. Conditions: 700699, 17 h. The method, then:
as §1

Series [19] deals with S. aureus strain FADDI 011. Format: cell-based, Staphylococcus aureus. The settings on record: strain FADDI 011, 17 h. The method, then: as §1
Series [20] has as its system tammar wallaby erythrocytes. The series is classed as cell-based. The method, then: The toxicity of the antimicrobial peptides was determined using a haemolytic assay. In particular, the hemolytic activity of the peptides was determined using tammar wallaby erythrocytes. Fresh erythrocytes were harvested from heparinized blood taken from a tammar wallaby. Erythrocytes were harvested by centrifugation for 3 min at 3000 g. Erythrocytes were then washed three times with PBS (pH 7.4) until the supernatant was essentially colourless. 20 μl two fold serial dilutions of the peptide were mixed with the same volume of erythrocytes in solution 2%) in PBS of each well of a 96-plate. 80 μl PBS was added to each well after the plate was incubated at 37° C. for one hour. Plates were then centrifuged at 3000 g for 5 min. 90 μl of the resulting supernatant was transferred to a flat-bottom microtiter plate and haemoglobin release was monitored by measuring the absorbance at 414 nm with an ELISA plate reader. […] Each sample was performed in triplicate. Percentage hemolysis was calculated by the following formula: [(OD414 peptide−OD414 buffer)/OD414 complete hemolysis−OD414 buffer)]×100%.

Setting [21] is: MHB (less than 5 mg/L Mg2+ and 24 mg/L Ca2+), 17 hr at 35° C.

Protocol for E. coli DH5α: Briefly, approximately 4×10^6 of mid-logarithmic-phase organisms were grown on plates in 11 ml of warm 0.8% agarose containing 0.03% (w/v) Tryticase soy broth (TSB) powder, with or without 100 mM NaCl, buffered with 10 mM sodium phosphate, pH 7.4. The test peptide was serially diluted in acidified water (0.01% acetic acid), and 5 μl of diluted peptide sample was loaded in a 2.5 diameter well in the agarose. A 10 ml overlay gel composed of 6% TSB, 0.8% agarose and 10 mM sodium phosphate buffer (pH 7.4) was poured into each well. Plates were then incubated overnight to allow the surviving organisms to form microcolonies. The clear zone were measured to the nearest 0.1 mm using a magnified transilluminator and expressed in units (1 mm=10 U) after subtracting the well diameter. The minimum inhibitory concentration (MIC) is defined by the χ intercept of a regression line through zone diameters obtained from a series of serially diluted peptide samples.

As for “D-Lys Arg Gly Phe Gly Lys Lys Leu Arg Lys Arg Leu Lys Lys Phe Arg Asn Ser Ile Lys Lys Arg Leu Lys Asn Phe Asn Val Val Ile Pro Ile Pro Leu D-Pro ([dK]RGFGKKLRKRLKKFRNSIKKRLKNFNVVIPIPL[dP]) [SEQ ID NO: 11]”, the “antimicrobial activity, cleared area in radial diffusion assay (FIG. 4)” value (from here on “antimicrobial activity, cleared area”) in the series with E. coli DH5α (E. coli) is “exhibits antimicrobial activity”.

As to `CC[C@H](C)[C@H](NC(=O)[C@H](CCCCN)NC(=O)[C@H](CCC(=O)O)NC(=O)[C@H](CCCCN)NC(=O)[C@H](CO)NC(=O)[C@H](CCCCN)NC(=O)[C@H](CCCNC(=N)N)NC(=O)[C@H](Cc1ccccc1)NC(=O)[C@H](Cc1ccccc1)NC(=O)[C@H](CC(=O)O)NC(=O)CNC(=O)[C@H](CC(C)C)NC(=O)[C@@H](N)CC(C)C)C(=O)NCC(=O)N[C@@H](CCCCN)C(=O)N[C@@H](CCC(=O)O)C(=O)N[C@@H](Cc1ccccc1)C(=O)N[C@@H](CCCCN)C(=O)N[C@@H](CCCNC(=N)N)C(=O)N[C@H](C(=O)N[C@H](C(=O)N[C@@H](CCC(N)=O)C(=O)N[C@@H](CCCNC(=N)N)C(=O)N[C@H](C(=O)N[C@@H](CCCCN)C(=O)N[C@@H](CC(=O)O)C(=O)N[C@@H](Cc1ccccc1)C(=O)N[C@@H](CC(C)C)C(=O)N[C@@H](CCCNC(=N)N)C(=O)N[C@@H](CC(N)=O)C(=O)N[C@@H](CC(C)C)C(=O)N[C@H](C(=O)N1CCC[C@H]1C(=O)N[C@@H](CCCNC(=N)N)C(=O)N[C@H](C(=O)N[C@@H](CCC(=O)O)C(=O)N[C@@H](CO)C(=O)O)[C@@H](C)O)C(C)C)[C@@H](C)CC)C(C)C)[C@@H](C)CC` [LL-37, reference compound], the MIC (usually the smallest concentration in the dilution series that meets the test's criterion for growth inhibition) in series [1] (setting [21]) is 32 µg/mL (≈ 7.12 µM); in the series with Escherichia coli DH5 α (microbroth dilution in MHB), 32 µg/mL (≈ 7.12 µM); in series [2] (setting [21]) it was 32 µg/mL (≈ 7.12 µM); in series [3] (setting [21]) it was >32 µg/mL.

On to “RKKGSKRHKPGSYSVIALGKPGVKKSPYMEAL-NH2 [SEQ ID NO: 31]”, for which the minimal inhibitory concentration (MIC) was 57.8 µg/mL in [4]; >250 µg/mL in series [5]; 14.03 ± 0.25 µg/mL against Bacillus subtilis; 8.5 ± 0.23 µg/mL in series [6] (ATCC 25923); 3.43 ± 0.34 µg/mL in series [7] (ATCC 19615); 8.66 ± 0.45 µg/mL in series [8]. The MIC in [9] (ATCC 12927) is 5.44 ± 0.11 µg/mL; in series [10] (ATCC 753), >250 µg/mL; in the series on E. coli DH5α (DH5 α), 1.16 ± 0.67 µg/mL. Also, the “antimicrobial activity in words” value in [7] (Table 1) is recorded as “moderate protection”; in the series on E. coli DH5α (Table 1), “strong protection”.

As for “KRGFGKKLRKRLKKFRNSIKKRLKNFNVVIPIPLP-NH2 [SEQ ID NO: 2]”, the “antimicrobial activity in words” value in [6] (Table 1) was “weaker antimicrobial activity”; in series [9] (Table 1), “moderate antimicrobial activity”; in series [10] (Table 1), “Weaker antimicrobial activity”. Moreover, the MIC in series [11] was 4 µg/mL; in series [12] (CAMHB (10.0 mg/L Mg2+ and 24 mg/L Ca2+)), 8 µg/mL; in series [12] (MHB (less than 5 mg/L Mg2+ and 24 mg/L Ca2+)) it was 4 µg/mL; in [13], >64 µg/mL; in [14], 8 µg/mL; in series [15] it was 4 µg/mL. Further, the MIC in series [16] is 32 µg/mL; in series [17] it was 16 µg/mL; against Escherichia coli DH5 α (DH5 α), 2 µg/mL; in [18] it was >64 µg/mL; against S. aureus (ATCC 43300), >64 µg/mL; against S. aureus 700699 it was >64 µg/mL. Moreover, the minimum inhibitory concentration (MIC) in [19] is >64 µg/mL. Also, the “haemolysis at the MIC determined in Example 1” value in [20] is on record as “less than 5%”. For the same compound, the “haemolysis at the majority of concentrations tested (FIGS. 2a and 2b)” value in [20] is “did not cause substantial levels of haemolysis”. The “radial clear zone compared to LL-37 (FIG. 3)” value with E. coli DH5α (5 μl of 250 μg/ml solutions of each peptide, E. coli) is recorded as “larger radial clear zone”.

In the case of `CC[C@@H](C)[C@@H](NC(=O)[C@@H](CO)NC(=O)[C@@H](CC(N)=O)NC(=O)[C@@H](CCCNC(=N)N)NC(=O)[C@@H](Cc1ccccc1)NC(=O)[C@@H](CCCCN)NC(=O)[C@@H](CCCCN)NC(=O)[C@@H](CC(C)C)NC(=O)[C@@H](CCCNC(=N)N)NC(=O)[C@@H](CCCCN)NC(=O)[C@@H](CCCNC(=N)N)NC(=O)[C@@H](CC(C)C)NC(=O)[C@@H](CCCCN)NC(=O)[C@@H](CCCCN)NC(=O)CNC(=O)[C@@H](Cc1ccccc1)NC(=O)CNC(=O)[C@@H](CCCNC(=N)N)NC(=O)[C@H](N)CCCCN)C(=O)N[C@H](CCCCN)C(=O)N[C@H](CCCCN)C(=O)N[C@H](CCCNC(=N)N)C(=O)N[C@H](CC(C)C)C(=O)N[C@H](CCCCN)C(=O)N[C@H](CC(N)=O)C(=O)N[C@H](Cc1ccccc1)C(=O)N[C@H](CC(N)=O)C(=O)N[C@@H](C(=O)N[C@@H](C(=O)N[C@@H](C(=O)N1CCC[C@@H]1C(=O)N[C@@H](C(=O)N1CCC[C@@H]1C(=O)N[C@H](CC(C)C)C(=O)N1CCC[C@@H]1C(N)=O)[C@H](C)CC)[C@H](C)CC)C(C)C)C(C)C` [SEQ ID NO: 9, D-Lys D-Arg D-Gly D-Phe D-Gly D-Lys D-Lys D-Leu D-Arg D-Lys D-Arg D-Leu D-Lys D-Lys D-Phe D-Arg D-Asn D-Ser D-Ile D-Lys D-Lys D-Arg D-Leu D-Lys D-Asn D-Phe D-Asn D-Val D-Val D-Ile D-Pro D-Ile D-Pro D-Leu D-Pro] (H-[dK][dR]G[dF]G[dK][dK][dL][dR][dK][dR][dL][dK][dK][dF][dR][dN][dS][dI][dK][dK][dR][dL][dK][dN][dF][dN][dV][dV][dI][dP][dI][dP][dL][dP]-NH2; N-terminus and C-terminus assumed), the minimum inhibitory concentration (MIC) in series [1] (ATCC 19606, 17 h) is 8 µg/mL (≈ 1.9 µM); with Escherichia coli DH5 α (DH5 α), 4 µg/mL (≈ 0.948 µM); in series [2] (ATCC 13883, 17 h) it was 4 µg/mL (≈ 0.948 µM); in series [3] (ATCC 27853, 17 h), 4 µg/mL (≈ 0.948 µM); in the series on S. aureus (ATCC 43300) it was >32 µg/mL.

Take “PLPIPIVVNFNKLRKKISNRFKKLRKRLKKGFGRK [SEQ ID NO: 13]”: the “antimicrobial activity, cleared area” value in the series with E. coli DH5α (E. coli) is listed as “exhibits antimicrobial activity”.

As to “D-Pro Leu Pro Ile Pro Ile Val Val Asn Phe Asn Lys Leu Arg Lys Lys Ile Ser Asn Arg Phe Lys Lys Leu Arg Lys Arg Leu Lys Lys Gly Phe Gly Arg D-Lys ([dP]LPIPIVVNFNKLRKKISNRFKKLRKRLKKGFGR[dK]) [SEQ ID NO: 17]”, in the series on E. coli DH5α (E. coli), the “antimicrobial activity, cleared area” value is recorded as “exhibits antimicrobial activity”.
